The values that follow come from US11311462B2, “Adhesive monomers for dental materials” (Mitsui Chemicals, Inc., priority 2017, dated 2022).

SMILES strings stand for the structures.

This series is described as follows: Three-point bending test of cured product. It is filed as physicochemical. How it is done: The composition prepared as described above was packed in a 2×2×25 mm SUS mold, covered with a cover film, and then irradiated with light from a dental visible light irradiator (α Light V, manufactured by J. Morita Tokyo MFG. Corp.) for 3 minutes on each side, namely, for a total of 6 minutes on both sides to cure the composition. The cured product was stored in deionized water at 37° C. for 24 hours, and then subjected to a three-point bending test with a general-purpose tester (Precise Versatile Material Tester 210X, manufactured by INTESCO Co., Ltd.) under conditions in which the distance between supports was 20 mm and the cross head speed was 1.0 mm/min. The results of the bending test of the cured products of the compositions to be used as the dental materials are shown in Table 2.

Where [1] appears, read: Table 2, composition: compound 1.80 g, UDMA 2.5 g, TEGDMA 0.74 g, plus 0.5 parts by weight TPO, cured product stored in deionized water at 37° C. 24 hours.
The mark [2] stands for this setting: Table 3, composition: compound 60, UDMA 30, TEGDMA 10 parts by weight, plus 0.5 parts TPO.
Where [3] appears, read: Table 5, filled pasty composition in parts by weight: compound 8.0, UDMA 20, TEGDMA 10, 4-META 2.0, CQ 0.2, 2-butoxyethyl 4-(dimethylamino)benzoate 0.4, glass filler 59.

For the compound `C=C(C)C(=O)OCCNC(=O)OCC(COC(=O)NCCOC(=O)C(=C)C)OP(=O)(O)O` [Compound 2], the “Cured product bending test result Elastic modulus” value under setting [1] amounted to 2.3 GPa, the “Cured product bending test result Elastic modulus” value under setting [2] is reported as 2.2 GPa and the “Cured product bending test result Elastic modulus” value under setting [3] came to 6.5 GPa. Moreover, the “Cured product bending test result Maximum stress” value runs as follows: under setting [1], 102 MPa; under setting [2], 92 MPa.
`C=C(C)C(=O)OCCNC(=O)OCC(COCC(COC(=O)NCCOC(=O)C(=C)C)OP(=O)(O)O)OC(=O)NCCOC(=O)C(=C)C` (stereo not drawn) [Compound 4]: under setting [1], the “Cured product bending test result Elastic modulus” value is 2.4 GPa and the “Cured product bending test result Maximum stress” value worked out at 102 MPa. Under setting [2], the “Cured product bending test result Elastic modulus” value was determined as 2.3 GPa and the “Cured product bending test result Maximum stress” value is reported as 88 MPa.
For `C=C(C)C(=O)OCCOCCNC(=O)OCC(COC(=O)NCCOCCOC(=O)C(=C)C)OP(=O)(O)O` [Compound 6], under setting [1], the “Cured product bending test result Elastic modulus” value turned out to be 2.0 GPa and the “Cured product bending test result Maximum stress” value amounted to 89 MPa. Further, under setting [2], the “Cured product bending test result Elastic modulus” value turned out to be 1.3 GPa and the “Cured product bending test result Maximum stress” value came to 66 MPa.
As to `C=C(C)C(=O)OCCCCCCCCCCOP(=O)(O)O` [MDP, 10-methacryloyloxydecyl dihydrogen phosphate, reference compound], the “Cured product bending test result Elastic modulus” value is, setting by setting: under setting [1], 1.7 GPa; under setting [2], 0.32 GPa; under setting [3], 5.7 GPa. In addition, the “Cured product bending test result Maximum stress” value is, setting by setting: under setting [1], 85 MPa; under setting [2], 22 MPa.
